Assay results reported in US9302999B2, “Substituted triazoles as herbicides” (E. I. DU PONT DE NEMOURS AND COMPANY, priority 2012, dated 2016).

Legend:
Type in all cases: in vivo
[1] = tested on: rice (Oryza sativa); assay: Test B flooded paddy: rice; settings: Flood; 250 g ai/ha; applied to paddy water at 2-leaf stage; visually evaluated after 13 to 15 days
Procedure, shortened: (§1)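 Plants were grown to the 2-leaf stage and pots flooded to 3 cm above soil. Compounds were applied directly into the paddy water, with depth kept for the test. After 13–15 days in greenhouse, response was rated visually against controls on a 0 (no effect) to 100 (complete control) scale.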

[2] = tested on: sedge, umbrella (small-flower umbrella sedge Cyperus difformis); assay: Test B flooded paddy: sedge, umbrella; settings: Flood; 250 g ai/ha; applied to paddy water at 2-leaf stage; visually evaluated after 13 to 15 days
Procedure, shortened: as §1

[3] = tested on: ducksalad (Heteranthera limosa); assay: Test B flooded paddy: ducksalad; settings: Flood; 250 g ai/ha; applied to paddy water at 2-leaf stage; visually evaluated after 13 to 15 days
Procedure, shortened: as §1

[4] = tested on: wild oat (Avena fatua); assay: Test C pre-/postemergence: wild oat
Procedure, shortened: (§2)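 Preemergence on seeds in loam/sand, postemergence on 2–18 cm (1–4-leaf) plants in peat-based medium; compounds in non-phytotoxic solvent with surfactant. After 13–15 days in greenhouse, visual rating versus controls, 0 (no effect) to 100 (complete control).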

[5] = tested on: bermudagrass (Cynodon dactylon); assay: Test C pre-/postemergence: bermudagrass
Procedure, shortened: as §2

[6] = tested on: surinam grass (Brachiaria decumbens); assay: Test C pre-/postemergence: surinam grass
Procedure, shortened: as §2

[7] = tested on: corn (Zea mays); assay: Test C pre-/postemergence: corn
Procedure, shortened: as §2

[8] = tested on: woolly cupgrass (Eriochloa villosa); assay: Test C pre-/postemergence: woolly cupgrass
Procedure, shortened: as §2

[9] = tested on: foxtail, giant (giant foxtail, Setaria faberii); assay: Test C pre-/postemergence: foxtail, giant
Procedure, shortened: as §2

[10] = tested on: lambsquarters (Chenopodium album); assay: Test C pre-/postemergence: lambsquarters
Procedure, shortened: as §2

[11] = tested on: soybean (Glycine max); assay: Test C pre-/postemergence: soybean
Procedure, shortened: as §2

[12] = tested on: velvetleaf (Abutilon theophrasti); assay: Test C pre-/postemergence: velvetleaf
Procedure, shortened: as §2

[13] = tested on: deadnettle (henbit deadnettle, Lamium amplexicaule); assay: Test C postemergence: deadnettle
Procedure, shortened: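 Visual 0–100 injury score vs untreated controls (0 none, 100 complete control), taken 13–15 d after treatment. Postemergence spray on potted plants, 2–18 cm, 1–4 leaves; greenhouse.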

[14] = Postemergence, 31 g ai/ha, scale 0 to 100 (0 no effect, 100 complete control)
[15] = Postemergence, 62 g ai/ha, scale 0 to 100 (0 no effect, 100 complete control)
[16] = Postemergence, 125 g ai/ha, scale 0 to 100, 0 no effect, 100 complete control
[17] = Postemergence, 250 g ai/ha, scale 0 to 100
[18] = Preemergence, 31 g ai/ha, scale of 0 to 100, 0 is no effect, 100 is complete control
[19] = Preemergence, 62 g ai/ha, scale of 0 to 100, 0 is no effect, 100 is complete control
[20] = Preemergence, 125 g ai/ha, scale 0 to 100, 0 no effect, 100 complete control
[21] = Preemergence, 250 g ai/ha, scale 0 to 100, 0 no effect, 100 complete control
[22] = 31 g ai/ha, scale 0 to 100 (0 no effect, 100 complete control)
[23] = 62 g ai/ha, scale 0 to 100 (0 no effect, 100 complete control)
[24] = 125 g ai/ha, scale 0 to 100, 0 no effect, 100 complete control

COc1nn(-c2ccc(C(F)(F)F)cc2)nc1Cc1ccnc(C(F)F)c1 [Compound 138]
Plant response rating, Rice (0 to 100 scale, 0 is no effect, 100 is complete control) [1]: 50
Plant response rating, Sedge, Umbrella (0 to 100 scale, 0 is no effect, 100 is complete control) [2]: 90
Plant response rating, Ducksalad (0 to 100 scale, 0 is no effect, 100 is complete control) [3]: 90
Plant response rating, Oat, Wild [4, 14]: 55
Plant response rating, Oat, Wild [4, 15]: 60
Plant response rating, Oat, Wild [4, 16]: 80
Plant response rating, Oat, Wild [4, 17]: 98
Plant response rating, Oat, Wild [4, 18]: 80
Plant response rating, Oat, Wild [4, 19]: 85
Plant response rating, Oat, Wild [4, 20]: 95
Plant response rating, Oat, Wild [4, 21]: 95
Plant response rating, Bermudagrass [5, 14]: 20
Plant response rating, Bermudagrass [5, 15]: 45
Plant response rating, Bermudagrass [5, 16]: 75
Plant response rating, Bermudagrass [5, 17]: 95
Plant response rating, Bermudagrass [5, 18]: 100
Plant response rating, Bermudagrass [5, 19]: 100
Plant response rating, Bermudagrass [5, 20]: 100
Plant response rating, Bermudagrass [5, 21]: 100
Plant response rating, Surinam Grass [6, 14]: 45
Plant response rating, Surinam Grass [6, 15]: 50
Plant response rating, Surinam Grass [6, 16]: 65
Plant response rating, Surinam Grass [6, 18]: 55
Plant response rating, Surinam Grass [6, 19]: 80
Plant response rating, Surinam Grass [6, 20]: 85
Plant response rating, Surinam Grass [6, 21]: 100
Plant response rating, Corn [7, 18]: 20
Plant response rating, Corn [7, 19]: 30
Plant response rating, Corn [7, 20]: 40
Plant response rating, Corn [7, 21]: 55
Plant response rating, Cupgrass, Woolly [8, 14]: 50
Plant response rating, Cupgrass, Woolly [8, 15]: 55
Plant response rating, Cupgrass, Woolly [8, 16]: 55
Plant response rating, Cupgrass, Woolly [8, 17]: 85
Plant response rating, Cupgrass, Woolly [8, 18]: 60
Plant response rating, Cupgrass, Woolly [8, 19]: 90
Plant response rating, Cupgrass, Woolly [8, 20]: 95
Plant response rating, Cupgrass, Woolly [8, 21]: 100
Plant response rating, Foxtail, Giant [9, 14]: 20
Plant response rating, Foxtail, Giant [9, 15]: 55
Plant response rating, Foxtail, Giant [9, 16]: 55
Plant response rating, Foxtail, Giant [9, 17]: 95
Plant response rating, Foxtail, Giant [9, 18]: 98
Plant response rating, Foxtail, Giant [9, 19]: 100
Plant response rating, Foxtail, Giant [9, 20]: 100
Plant response rating, Foxtail, Giant [9, 21]: 100
Plant response rating, Lambsquarters [10, 14]: 100
Plant response rating, Lambsquarters [10, 15]: 100
Plant response rating, Lambsquarters [10, 16]: 100
Plant response rating, Lambsquarters [10, 17]: 100
Plant response rating, Lambsquarters [10, 18]: 95
Plant response rating, Lambsquarters [10, 19]: 98
Plant response rating, Lambsquarters [10, 20]: 98
Plant response rating, Lambsquarters [10, 21]: 98
Plant response rating, Soybean [11, 14]: 55
Plant response rating, Soybean [11, 15]: 70
Plant response rating, Soybean [11, 16]: 80
Plant response rating, Soybean [11, 17]: 80
Plant response rating, Soybean [11, 18]: 5
Plant response rating, Soybean [11, 19]: 20
Plant response rating, Soybean [11, 21]: 30
Plant response rating, Velvetleaf [12, 14]: 50
Plant response rating, Velvetleaf [12, 15]: 75
Plant response rating, Velvetleaf [12, 16]: 80
Plant response rating, Velvetleaf [12, 17]: 90
Plant response rating, Velvetleaf [12, 18]: 5
Plant response rating, Velvetleaf [12, 20]: 55
Plant response rating, Velvetleaf [12, 21]: 98
Plant response rating, Deadnettle [13, 22]: 98
Plant response rating, Deadnettle [13, 23]: 100
Plant response rating, Deadnettle [13, 24]: 100
Plant response rating, Deadnettle ([13]; 250 g ai/ha, scale 0 to 100): 100

COc1nn(-c2cccc(F)c2)nc1Cc1ccnc(C(F)(F)F)c1 [Compound 139]
Plant response rating, Rice (0 to 100 scale, 0 is no effect, 100 is complete control) [1]: 45
Plant response rating, Sedge, Umbrella (0 to 100 scale, 0 is no effect, 100 is complete control) [2]: 80
Plant response rating, Ducksalad (0 to 100 scale, 0 is no effect, 100 is complete control) [3]: 70
Plant response rating, Oat, Wild [4, 14]: 40
Plant response rating, Oat, Wild [4, 15]: 50
Plant response rating, Oat, Wild [4, 16]: 60
Plant response rating, Oat, Wild [4, 17]: 80
Plant response rating, Oat, Wild [4, 18]: 10
Plant response rating, Oat, Wild [4, 19]: 50
Plant response rating, Oat, Wild [4, 21]: 85
Plant response rating, Bermudagrass [5, 14]: 35
Plant response rating, Bermudagrass [5, 15]: 40
Plant response rating, Bermudagrass [5, 16]: 55
Plant response rating, Bermudagrass [5, 17]: 80
Plant response rating, Bermudagrass [5, 18]: 98
Plant response rating, Bermudagrass [5, 19]: 100
Plant response rating, Bermudagrass [5, 20]: 100
Plant response rating, Bermudagrass [5, 21]: 100
Plant response rating, Surinam Grass [6, 14]: 10
Plant response rating, Surinam Grass [6, 15]: 35
Plant response rating, Surinam Grass [6, 16]: 35
Plant response rating, Surinam Grass [6, 17]: 40
Plant response rating, Surinam Grass [6, 18]: 15
Plant response rating, Surinam Grass [6, 19]: 65
Plant response rating, Surinam Grass [6, 20]: 85
Plant response rating, Surinam Grass [6, 21]: 98
Plant response rating, Corn [7, 15]: 25
Plant response rating, Corn [7, 16]: 55
Plant response rating, Corn [7, 17]: 60
Plant response rating, Corn [7, 18]: 0
Plant response rating, Corn [7, 19]: 0
Plant response rating, Corn [7, 20]: 10
Plant response rating, Corn [7, 21]: 30
Plant response rating, Cupgrass, Woolly [8, 14]: 15
Plant response rating, Cupgrass, Woolly [8, 15]: 30
Plant response rating, Cupgrass, Woolly [8, 16]: 50
Plant response rating, Cupgrass, Woolly [8, 18]: 30
Plant response rating, Cupgrass, Woolly [8, 19]: 40
Plant response rating, Cupgrass, Woolly [8, 20]: 75
Plant response rating, Cupgrass, Woolly [8, 21]: 90
Plant response rating, Foxtail, Giant [9, 14]: 15
Plant response rating, Foxtail, Giant [9, 15]: 30
Plant response rating, Foxtail, Giant [9, 16]: 40
Plant response rating, Foxtail, Giant [9, 17]: 75
Plant response rating, Foxtail, Giant [9, 18]: 95
Plant response rating, Foxtail, Giant [9, 19]: 100
Plant response rating, Foxtail, Giant [9, 20]: 100
Plant response rating, Foxtail, Giant [9, 21]: 100
Plant response rating, Lambsquarters [10, 14]: 90
Plant response rating, Lambsquarters [10, 15]: 95
Plant response rating, Lambsquarters [10, 16]: 95
Plant response rating, Lambsquarters [10, 17]: 98
Plant response rating, Lambsquarters [10, 18]: 60
Plant response rating, Lambsquarters [10, 19]: 70
Plant response rating, Lambsquarters [10, 20]: 85
Plant response rating, Lambsquarters [10, 21]: 90
Plant response rating, Soybean [11, 14]: 40
Plant response rating, Soybean [11, 15]: 40
Plant response rating, Soybean [11, 16]: 45
Plant response rating, Soybean [11, 17]: 45
Plant response rating, Soybean [11, 18]: 5
Plant response rating, Soybean [11, 19]: 15
Plant response rating, Soybean [11, 20]: 25
Plant response rating, Soybean [11, 21]: 25
Plant response rating, Velvetleaf [12, 14]: 20
Plant response rating, Velvetleaf [12, 15]: 35
Plant response rating, Velvetleaf [12, 16]: 70
Plant response rating, Velvetleaf [12, 17]: 75
Plant response rating, Velvetleaf [12, 18]: 0
Plant response rating, Velvetleaf [12, 19]: 10
Plant response rating, Velvetleaf [12, 20]: 40
Plant response rating, Velvetleaf [12, 21]: 40
Plant response rating, Deadnettle [13, 22]: 95
Plant response rating, Deadnettle [13, 23]: 95
Plant response rating, Deadnettle [13, 24]: 98
Plant response rating, Deadnettle ([13]; 250 g ai/ha, scale 0 to 100): 100
